Source: PMC3894558, “Chemical signatures and new drug targets for gametocytocidal drug development” (Scientific Reports, 2014)
Counter-ions that a name gives are not always drawn. Like-named read-outs stand apart in the source and are kept apart here.

What was measured:
[1] = tested on: P. falciparum 3D7 gametocytes; test: alamarBlue gametocyte viability assay, strain 3D7; format: cell-based, Plasmodium falciparum
[2] = tested on: P. falciparum HB3 gametocytes; test: alamarBlue gametocyte viability assay, strain HB3; format: cell-based, Plasmodium falciparum
Protocol: Briefly, gametocyte cultures were set up at 0.1% parasitemia and on days 9–10 treated with 50 mM N-acetylglucosamine (NAG) to block further asexual growth. Stage III–V gametocytes were isolated by Percoll density gradient centrifugation on day 12 and returned to culture for 24 hrs before being used in the assay[9].
Briefly, 2.5 μl/well incomplete medium was dispensed into each well of 1,536-well plates using the Multidrop Combi followed by 23 nl compound transferring using the NX-TR Pintool (WAKO Scientific Solutions, San Diego, CA). Then, 2.5 μl/well of gametocytes was dispensed with a seeding density of 20,000 cells/well using the Multidrop Combi. The assay plates were incubated for 72 hrs at 37°C with 5% CO2.

[3] = tested on: P. falciparum Dd2 gametocytes; test: alamarBlue gametocyte viability assay, strain Dd2; format: cell-based, Plasmodium falciparum
[4] = tested on: HepG2 cells; test: cells; details: Homo sapiens; for Emax: HepG2, read-out: % Max response; for IC50: HepG2, read-out: IC50 in HepG2 cells
Description: Growth medium was made with Dulbecco's Modified Eagle Medium with 10% fetal bovine serum (FBS).

[5] = Plasmodium falciparum, 3D7, strain profiling, 11 concentrations, 1:3 dilution, three times, read-out: 3D7-gametocytes IC50
[6] = Plasmodium falciparum, HB3, read-out: HB3-gametocytes IC50
[7] = Plasmodium falciparum, DD2, read-out: Dd2-gametocytes IC50
[8] = Plasmodium falciparum, 3D7, P. falciparum 3D7 gametocytes, mean of at least 3 independent experiments, read-out: Gametocyte IC50
[9] = Plasmodium falciparum, HB3, strain profiling, 11 concentrations, 1:3 dilution, three times, read-out: HB3-gametocytes IC50
[10] = Plasmodium falciparum, DD2, strain profiling, 11 concentrations, 1:3 dilution, three times, read-out: Dd2-gametocytes IC50
[11] = strain profiling, 11 concentrations, 1:3 dilution, three times, read-out: 3D7-gametocytes IC50
[12] = strain profiling, 11 concentrations, 1:3 dilution, three times, read-out: HB3-gametocytes IC50
[13] = strain profiling, 11 concentrations, 1:3 dilution, three times, read-out: Dd2-gametocytes IC50

Structure (SMILES)	IC50 [1, 8]	IC50 [2, 9]	IC50 [3, 10]	IC50 [4]	IC50 [1, 5]	Emax [4]	other results
CCN(CC)Cc1nccn1-c1ccc([N+](=O)[O-])cc1C(=O)c1ccccc1Cl [Nizofenone]					23500 nM		IC50 [2, 6]: 14800 nM; IC50 [3, 7]: 16600 nM
CN(C)C/C=C/C(=O)Nc1cc2c(Nc3ccc(F)c(Cl)c3)ncnc2cc1O[C@H]1CCOC1 [Afatinib]	935 nM	4180 nM	2960 nM	18700 nM		-100%	
Cc1cc(NC2CCCCC2)nc(-n2nc(C)cc2C)n1 [CyPPA]							IC50 [1, 11]: 469 nM; IC50 [2, 12]: 743 nM; IC50 [3, 13]: 590 nM
C/C=C1\NC(=O)[C@H]2CSSCC/C=C/[C@H](CC(=O)N[C@H](C(C)C)C(=O)N2)OC(=O)[C@H](C(C)C)NC1=O [Romidepsin]				74 nM	264 nM	-98%	IC50 ([1]; Plasmodium falciparum, P. falciparum 3D7 gametocytes, mean of at least 3 independent experiments, read-out: Gametocyte IC50): 637 nM; IC50 [2, 6]: 148 nM; IC50 [3, 7]: 187 nM
CC[C@@H](C(=O)O)[C@@H]1O[C@@H]([C@@H](C)[C@H](O)[C@H](C)C(=O)[C@H](CC)[C@H]2O[C@]3(C=C[C@@H](O)[C@]4(CC[C@@](C)([C@H]5CC[C@](O)(CC)[C@H](C)O5)O4)O3)[C@H](C)C[C@@H]2C)[C@@H](C)C[C@@H]1C [Narasin]	50 nM	136 nM		27000 nM		-98%	IC50 [3, 7]: 76 nM
[O-][n+]1ccccc1SSc1cccc[n+]1[O-] [Dipyrithione]	263 nM	743 nM		10800 nM		-93%	IC50 [3, 7]: 590 nM
COc1cc(NC(C)CCCN)c2ncccc2c1 (centres unmarked) [Primaquine]				17800 nM			IC50 ([2]; read-out: HB3-gametocytes IC50, strain profiling, 11 concentrations, 1:3 dilution, three times, listed as PQ): 680 nM; IC50 ([3]; Plasmodium falciparum, DD2, read-out: Dd2-gametocytes IC50, strain profiling, 11 concentrations, 1:3 dilution, three times): 1080 nM; IC50 ([3]; read-out: Dd2-gametocytes IC50, strain profiling, 11 concentrations, 1:3 dilution, three times, listed as PQ): 1080 nM
CCN(CC)C(=S)SSC(=S)N(CC)CC [Tetraethylthiuram disulfide]							IC50 [1, 11]: 96 nM; IC50 [2, 12]: 148 nM; IC50 [3, 13]: 296 nM
c1ccc2c(c1)[I+]c1ccccc1-2 [Diphenyleneiodonium]		296 nM			132 nM		IC50 [3, 7]: 209 nM
CCN(CC)C(=S)SSC(=S)N(CC)CC [Disulfiram]		108 nM	96 nM		96 nM		

The next lines start with results.

IC50 [1, 8]	IC50 [2, 9]	IC50 [3, 10]	IC50 [4]	Structure (SMILES)	IC50 [1, 5]	Emax [4]	other results
	12 nM	37 nM		CO[C@@H]1[C@@H](OC)[C@H](C)[C@@](O)(CC(=O)O)O[C@H]1[C@H](C)[C@H]1O[C@@]2(CC[C@@](C)([C@H]3CC[C@@](C)([C@@H]4O[C@@H]([C@H]5O[C@](C)(O)[C@H](C)C[C@@H]5C)C[C@@H]4O[C@@H]4C[C@H](OC)[C@@H](OC)[C@H](C)O4)O3)O2)C[C@H](O)[C@H]1C [Maduramicin ammonium]	24 nM		
118 nM	74 nM	94 nM	148 nM	CC(C)C[C@H](NC(=O)[C@H](Cc1ccccc1)NC(=O)c1cnccn1)B(O)O [Bortezomib]		-82%	
1050 nM	1480 nM	2640 nM	11800 nM	COc1ccc(C[C@H](N)C(=O)N[C@H]2[C@@H](O)[C@H](n3cnc4c(N(C)C)ncnc43)O[C@@H]2CO)cc1 [Puromycin]		-71%	
372 nM	304 nM	526 nM	4690 nM	COCCn1c2c([n+](Cc3cnccn3)c1C)C(=O)c1ccccc1C2=O [YM155]		-92%	
	2640 nM	6620 nM		COc1ccc2nc3cc(Cl)ccc3c(Nc3cc(CN4CCCC4)c(O)c(CN4CCCC4)c3)c2n1 [Pyronaridine]	1870 nM		
47 nM			37200 nM	CO[C@@H]1[C@@H](OC)[C@H](C)[C@@](O)(CC(=O)O)O[C@H]1[C@H](C)[C@H]1O[C@@]2(CC[C@@](C)([C@H]3CC[C@@](C)([C@@H]4O[C@@H]([C@H]5O[C@](C)(O)[C@H](C)C[C@@H]5C)C[C@@H]4O[C@@H]4C[C@H](OC)[C@@H](OC)[C@H](C)O4)O3)O2)C[C@H](O)[C@H]1C [Maduramicin]		-42%	
47 nM	42 nM	47 nM	148 nM	CCNC(=O)c1noc(-c2cc(C(C)C)c(O)cc2O)c1-c1ccc(CN2CCOCC2)cc1 [NVP-AUY922]		-88%	
935 nM	148 nM	118 nM	372 nM	Cc1[nH]c2ccccc2c1CCNCc1ccc(/C=C/C(=O)NO)cc1 [Panobinostat]		-74%	
	59 nM	53 nM		OC(c1cc(C(F)(F)F)nc2c(C(F)(F)F)cccc12)C1CCCCN1 (centres unmarked) [Mefloquine hydrochloride]	74 nM		
